Experimental findings from ChEMBL document CHEMBL4364346, “Structure optimization of a new class of PPARγ antagonists” (Bioorg Med Chem, 2019) are described below.

The source made the active and inactive calls. The rule behind the calls is not given here.

Data set [1] can be described thus: Tmax in Swiss CD1 mouse at 1 mg/kg, ip measured upto 7 hrs by LC-MS analysis. The note with it: in vivo. The class given is ADME, organism-based.
Data set [2] in a line: AUC (0 to 3 hrs) in Swiss CD1 mouse at 1 mg/kg, ip measured upto 3 hrs by LC-MS analysis. It is filed as ADME, organism-based. More on the design: dose 1 mg/kg, time < 3 hr, route intraperitoneal. The note with it: in vivo.
Data set [3] is described as follows: Plasma concentration in Swiss CD1 mouse at 10 mg/kg, ip measured upto 4 hrs by LC-MS analysis. It is filed as ADME, organism-based.
Data set [4] can be described thus: AUC (0 to 4 hrs) in Swiss CD1 mouse at 10 mg/kg, ip measured upto 4 hrs by LC-MS analysis. The class given is ADME, organism-based. More on the design: time < 4 hr, dose 10 mg/kg, route intraperitoneal. The note with it: in vivo.
The target of data set [5] is T1, Retinoic acid receptor RXR-alpha (Homo sapiens) (UniProt P19793).
T1 sequence (whole entry): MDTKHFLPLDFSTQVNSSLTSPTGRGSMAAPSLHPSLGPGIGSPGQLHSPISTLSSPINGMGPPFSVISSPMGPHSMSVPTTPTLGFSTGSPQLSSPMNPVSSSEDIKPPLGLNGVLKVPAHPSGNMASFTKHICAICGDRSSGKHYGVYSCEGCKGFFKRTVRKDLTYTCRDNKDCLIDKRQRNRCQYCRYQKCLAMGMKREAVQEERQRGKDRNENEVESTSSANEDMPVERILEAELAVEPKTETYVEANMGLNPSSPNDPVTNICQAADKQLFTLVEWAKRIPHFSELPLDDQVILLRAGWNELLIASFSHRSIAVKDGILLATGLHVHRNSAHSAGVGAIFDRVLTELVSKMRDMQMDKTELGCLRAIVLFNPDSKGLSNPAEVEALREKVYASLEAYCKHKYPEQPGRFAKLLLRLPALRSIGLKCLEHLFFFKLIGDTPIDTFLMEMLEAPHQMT
Nature of the data set: Agonist activity at recombinant human pFA-CMV fused RXRalpha LBD transfected in HEK293T cells assessed as RXRalpha activation at 1 uM incubated for 12 to 14 hrs by dual glo luciferase reporter gene assay. It is filed as cell-based. (A reporter such as luciferase makes a cellular process visible.)

Data set [6] concerns the target T2, Bile acid receptor (Homo sapiens) (UniProt Q96RI1).
T2 sequence (whole entry): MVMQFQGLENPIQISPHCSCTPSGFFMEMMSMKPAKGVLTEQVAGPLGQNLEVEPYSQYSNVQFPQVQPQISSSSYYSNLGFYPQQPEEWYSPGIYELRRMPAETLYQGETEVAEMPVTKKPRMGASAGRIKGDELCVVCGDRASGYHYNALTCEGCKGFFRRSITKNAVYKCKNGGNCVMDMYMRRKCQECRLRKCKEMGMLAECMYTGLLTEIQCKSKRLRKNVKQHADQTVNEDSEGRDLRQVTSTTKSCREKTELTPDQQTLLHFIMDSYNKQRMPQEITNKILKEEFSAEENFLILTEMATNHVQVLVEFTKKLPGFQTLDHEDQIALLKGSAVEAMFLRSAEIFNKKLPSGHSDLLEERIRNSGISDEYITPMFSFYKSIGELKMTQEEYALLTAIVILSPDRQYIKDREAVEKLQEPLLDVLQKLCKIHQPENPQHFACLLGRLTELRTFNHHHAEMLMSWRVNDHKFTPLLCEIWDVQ
Nature of the data set: Agonist activity at recombinant human pFA-CMV fused FXR LBD transfected in HEK293T cells assessed as FXR activation at 1 uM incubated for 12 to 14 hrs by dual glo luciferase reporter gene assay. The class given is cell-based.

In data set [7] the target is T3, Vitamin D3 receptor (Homo sapiens) (UniProt P11473).
T3 sequence (whole entry): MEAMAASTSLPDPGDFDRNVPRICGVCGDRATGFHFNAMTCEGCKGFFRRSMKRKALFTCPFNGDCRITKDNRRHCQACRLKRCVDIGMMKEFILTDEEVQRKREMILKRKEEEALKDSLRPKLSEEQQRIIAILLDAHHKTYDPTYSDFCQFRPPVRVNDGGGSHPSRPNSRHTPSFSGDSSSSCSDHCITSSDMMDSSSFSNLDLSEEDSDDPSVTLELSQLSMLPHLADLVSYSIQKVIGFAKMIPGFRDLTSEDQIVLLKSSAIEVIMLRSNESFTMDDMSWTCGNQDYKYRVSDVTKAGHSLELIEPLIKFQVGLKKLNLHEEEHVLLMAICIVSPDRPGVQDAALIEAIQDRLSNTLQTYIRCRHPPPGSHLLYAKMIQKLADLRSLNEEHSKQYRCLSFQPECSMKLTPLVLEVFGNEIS
Nature of the data set: Agonist activity at recombinant human pFA-CMV fused VDR LBD transfected in HEK293T cells assessed as VDR activation at 1 uM incubated for 12 to 14 hrs by dual glo luciferase reporter gene assay. It is filed as cell-based.

Data set [8] concerns the target T4, Nuclear receptor subfamily 1 group I member 3 (Homo sapiens, UniProt Q14994).
T4 sequence (Q14994 whole entry): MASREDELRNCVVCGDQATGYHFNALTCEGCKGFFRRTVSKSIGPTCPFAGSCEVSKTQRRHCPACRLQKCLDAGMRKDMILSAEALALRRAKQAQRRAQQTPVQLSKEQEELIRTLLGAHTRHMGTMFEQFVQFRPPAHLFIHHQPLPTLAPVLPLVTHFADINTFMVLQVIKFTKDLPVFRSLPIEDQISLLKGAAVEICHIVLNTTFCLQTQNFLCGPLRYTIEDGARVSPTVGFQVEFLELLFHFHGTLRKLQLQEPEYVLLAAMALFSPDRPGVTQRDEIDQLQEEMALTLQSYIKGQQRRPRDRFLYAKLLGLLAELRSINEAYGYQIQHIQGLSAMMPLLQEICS
Nature of the data set: Agonist activity at recombinant human pFA-CMV fused CAR LBD transfected in HEK293T cells assessed as CAR activation at 1 uM incubated for 12 to 14 hrs by dual glo luciferase reporter gene assay. It is filed as cell-based.

The target in data set [9] is T5, Retinoic acid receptor alpha (Homo sapiens) (UniProt P10276).
T5 sequence (whole entry): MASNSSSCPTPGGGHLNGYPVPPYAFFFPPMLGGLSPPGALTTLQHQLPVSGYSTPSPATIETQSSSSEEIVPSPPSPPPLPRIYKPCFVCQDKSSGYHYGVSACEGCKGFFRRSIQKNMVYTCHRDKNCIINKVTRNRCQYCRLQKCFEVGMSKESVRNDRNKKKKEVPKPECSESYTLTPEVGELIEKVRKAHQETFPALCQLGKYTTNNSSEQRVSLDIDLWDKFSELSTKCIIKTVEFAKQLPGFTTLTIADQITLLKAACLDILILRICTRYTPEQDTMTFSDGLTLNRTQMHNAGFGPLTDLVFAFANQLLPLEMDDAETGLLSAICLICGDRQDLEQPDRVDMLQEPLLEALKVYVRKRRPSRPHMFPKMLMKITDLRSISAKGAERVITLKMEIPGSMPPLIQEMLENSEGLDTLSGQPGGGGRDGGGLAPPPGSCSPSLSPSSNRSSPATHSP
Nature of the data set: Antagonist activity at recombinant human pFA-CMV fused RARalpha LBD transfected in HEK293T cells assessed as reduction in tretinoin-induced RARalpha activation at 1 uM incubated for 12 to 14 hrs by dual glo luciferase reporter gene assay. It is filed as cell-based.

The target in data set [10] is T4, Nuclear receptor subfamily 1 group I member 3. Nature of the data set: Antagonist activity at recombinant human pFA-CMV fused CAR LBD transfected in HEK293T cells assessed as reduction in CITCO-induced CAR activation at 1 uM incubated for 12 to 14 hrs by dual glo luciferase reporter gene assay. The class given is cell-based.

Turning to `CCC/C(=C\c1cc(OCc2ccc3nc(C(F)(F)F)cc(OC)c3c2)ccc1OCC1CCN(C)CC1)C(=O)O`, the time of peak concentration (Tmax) in [1] came out at 1 h. In data set [2], this compound yielded an exposure AUC(0-t) at 3 h of 101 ng·h/mL. This compound displayed a concentration at 4 h in data set [3] of 115 nM. The compound also showed an exposure AUC(0-t) at 4 h in data set [4] of 650 ng·h/mL. In addition, the outcome in data set [5], in data set [6], in [7] and in data set [9] was inactive. In addition, the Activity entry is on record as “Active” in data set [8] and “Not Active” in [10].

Consider `CCC/C(=C\c1cc(OCc2ccc3nc(C(F)(F)F)cc(OC)c3c2)ccc1OCCN1CCN(C)CC1)C(=O)O`, for which the Tmax in data set [1] came to 1 h. Besides, the AUC(0-t) at 3 h in data set [2] was found to be 112 ng·h/mL. This compound displayed a concentration at 4 h in [3] of 59 nM. The AUC(0-t) at 4 h in [4] turned out to be 598 ng·h/mL. Moreover, the result in [5], in data set [6], in [7] and in data set [9] was inactive. For the same compound, the Activity entry in data set [8] and in data set [10] was “Not Active” throughout.

By Tmax is commonly meant the time at which the peak concentration occurs. Broadly, the AUC(0-t) is the area under the concentration-time curve up to a stated or last time point. A low value points to low exposure.
